pKi: −log10 of the molar value.

A word on the pKi: it is the Ki on a negative log10 scale, so that one unit is a factor of ten. A low value points to a large Ki.

PIK3CG (human), sequence (P48736 whole entry, looked up): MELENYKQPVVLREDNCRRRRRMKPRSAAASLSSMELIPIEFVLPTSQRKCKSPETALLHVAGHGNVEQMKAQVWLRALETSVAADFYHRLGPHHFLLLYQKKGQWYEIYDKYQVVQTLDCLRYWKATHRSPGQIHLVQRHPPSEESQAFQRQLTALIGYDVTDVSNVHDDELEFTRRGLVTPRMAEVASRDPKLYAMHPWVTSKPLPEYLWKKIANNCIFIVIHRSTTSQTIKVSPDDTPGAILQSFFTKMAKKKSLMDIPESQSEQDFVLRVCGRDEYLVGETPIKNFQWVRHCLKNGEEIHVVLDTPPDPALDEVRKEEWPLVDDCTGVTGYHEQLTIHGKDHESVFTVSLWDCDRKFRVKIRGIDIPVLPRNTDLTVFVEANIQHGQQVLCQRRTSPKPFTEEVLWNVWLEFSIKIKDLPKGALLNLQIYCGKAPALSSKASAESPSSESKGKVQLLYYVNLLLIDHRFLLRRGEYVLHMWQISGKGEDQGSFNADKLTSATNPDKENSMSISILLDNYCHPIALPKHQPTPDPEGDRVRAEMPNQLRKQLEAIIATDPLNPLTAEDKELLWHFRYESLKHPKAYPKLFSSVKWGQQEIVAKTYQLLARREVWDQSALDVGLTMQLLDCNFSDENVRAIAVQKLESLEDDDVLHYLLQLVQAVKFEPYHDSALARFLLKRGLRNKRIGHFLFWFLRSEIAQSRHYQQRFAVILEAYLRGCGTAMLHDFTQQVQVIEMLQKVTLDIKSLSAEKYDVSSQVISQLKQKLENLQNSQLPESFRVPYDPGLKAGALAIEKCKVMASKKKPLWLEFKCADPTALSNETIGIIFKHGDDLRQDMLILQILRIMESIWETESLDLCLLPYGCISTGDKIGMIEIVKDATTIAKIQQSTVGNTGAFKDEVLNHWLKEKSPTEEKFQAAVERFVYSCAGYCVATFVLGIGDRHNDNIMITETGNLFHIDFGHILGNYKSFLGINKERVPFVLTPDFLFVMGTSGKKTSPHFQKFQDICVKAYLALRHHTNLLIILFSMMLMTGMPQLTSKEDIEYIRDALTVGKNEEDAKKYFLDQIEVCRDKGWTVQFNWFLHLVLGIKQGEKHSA

This experiment addresses PIK3CG (human) (UniProt P48736). In words: Inhibition of PIK3CG Kinase Activity.
The molecule `COc1cc(-c2ccc3c(n2)C(C)N(c2ccn(C)n2)C3=O)cnc1OC` (centres undefined) had a pKi of more than 7.00.
With `COc1cc(-c2ccc3c(n2)CN(c2ccc(N4CCN(CCC#N)CC4)nc2)C3=O)cnc1OC` the figure was more than 7.00; with `COc1cc(-c2ccc3c(n2)C(C)(C)N(c2cn[nH]c2)C3=O)cnc1OC`, more than 7.00.
With `CCn1cc(N2Cc3nc(-c4cncc(OC)c4)cc(C)c3C2=O)cn1` the figure was more than 7.00.
For `CCOc1cncc(-c2cc(C)c3c(n2)C(C)(C)N(c2cnn(CC(F)(F)F)c2)C3=O)c1` the value was more than 7.00.
Regarding `COc1cncc(-c2cc(C)c3c(n2)C(C)N(c2cn[nH]c2)C3=O)c1` (centres undefined), the pKi is more than 7.00.
Consider `COc1cc(-c2cc(C)c3c(n2)CN(c2cnn(CC(F)F)c2)C3=O)cnc1OC`, for which the pKi was more than 7.00.
Molecule `CCC1c2nc(-c3cncc(OC(F)F)c3)cc(C)c2C(=O)N1c1cnn(CC(F)(F)F)c1` (centres undefined) gave a pKi of more than 7.00.
For `CCOc1ncc(-c2cc(C)c3c(n2)CN(c2cncc(CCC#N)c2)C3=O)cc1OC` the value was more than 7.00.
For `COc1cncc(-c2cc(C)c3c(n2)C(C)N(c2ccn(CC(C)(C)F)n2)C3=O)c1` (centres undefined) the value was more than 7.00.
Consider `COc1ncc(-c2cc(C)c3c(n2)CN(c2cnn(CC(F)(F)F)c2)C3=O)cc1F`, for which the pKi was more than 7.00.
With `Cc1cc(-c2cncc(C(=O)NCC(F)(F)F)c2)nc2c1C(=O)N(c1cnn(CC(F)(F)F)c1)C2(C)C` the figure was more than 7.00; with `COc1cc(-c2ccc3c(n2)CN(c2ccc(=O)n(CC#N)c2)C3=O)cnc1OC`, more than 7.00; with `CCOc1cc(-c2cc(C)c3c(n2)CN(c2ccon2)C3=O)cnc1OC`, more than 7.00.
With `COc1cncc(-c2cc(C)c3c(n2)[C@@]2(CCOC2)N(c2cnn(CC(F)(F)F)c2)C3=O)c1` the figure was more than 7.00.
With `COc1cc(-c2ccc3c(n2)C(OC)N(c2cnn(CC(F)(F)F)c2)C3=O)cnc1OC` (centres undefined) the figure was more than 7.00; with `Cc1cc(-c2cncc(C(=O)N(C)C(C)C)c2)nc2c1C(=O)N(c1cnn(CC(F)(F)F)c1)C2(C)C`, more than 7.00.
As to `COc1cc(-c2ccc3c(n2)CN(c2ccn(C[C@@H](C)O)n2)C3=O)cnc1OC`, the pKi is more than 7.00.
For `COc1cc(-c2cc(C)c3c(n2)CN(c2cnn(C[C@@H](C)O)c2)C3=O)cnc1OC` the value was more than 7.00; for `COc1cncc(-c2cc(C)c3c(c2)C(C)N(c2cnn(CC(F)(F)F)c2)C3=O)c1` (centres undefined), more than 7.00.
For `COc1cc(-c2cc(C)c3c(n2)CN(c2cnn(CC(F)(F)F)c2)C3=O)cnc1OC` the value was more than 7.00.
With `CCNC(=O)c1cc(-c2cc(C)c3c(n2)C(C)(C)N(c2cnn(CC(F)(F)F)c2)C3=O)cnc1OC` the figure was more than 7.00.
As to `C=C(F)Cn1cc(N2C(=O)c3c(C)cc(-c4cncc(OC)c4)nc3C2(C)C)cn1`, the pKi was more than 7.00.
With `COc1cncc(N2Cc3nc(-c4cnc(OC)c(OC)c4)cc(C)c3C2=O)c1` the figure was more than 7.00.
For `COc1cc(-c2ccc3c(n2)CN(c2cnn(CC(C)O)c2)C3=O)cnc1OC` (centres undefined) the value was more than 7.00.
For `COc1cc(OC)c(-c2cc(C)c3c(n2)C(C)N(c2cnn(CC(F)(F)F)c2)C3=O)cn1` (centres undefined) the value was more than 7.00; for `CCc1cc(N2Cc3nc(-c4cnc(OC)c(OC)c4)cc(C)c3C2=O)nn1CC`, more than 7.00; for `COc1cc(-c2ccc3c(c2)CN(c2cnn(CC(F)F)c2)C3=O)cnc1OC`, more than 7.00.
In turn, `COc1cc(-c2cc(C)c3c(n2)C2(CCCO2)N(c2cnn(CC(F)(F)F)c2)C3=O)cnc1OC(C)C` (centres undefined) showed a pKi of more than 7.00.
For `CCOc1cc(-c2cc(C)c3c(n2)C(C)N(c2cnn(CC(F)F)c2)C3=O)cnc1C` (centres undefined) the value was more than 7.00; for `COc1ccc(-c2cc(C)c3c(n2)C(C)(C)N(c2cnn(CC(F)F)c2)C3=O)nc1OC`, more than 7.00; for `CCc1cncc(-c2cc(C)c3c(n2)C(C)(C)N(c2cnn(CC(F)(F)F)c2)C3=O)c1`, more than 7.00.
For `COc1cc(-c2cc(C)c3c(n2)C2(CC2)N(c2cnn(CC(F)(F)F)c2)C3=O)cnc1OC(C)C` the value was more than 7.00; for `COc1cc(-c2ccc3c(n2)CN(c2cnn(CCO)c2)C3=O)cnc1OC`, more than 7.00.
For `COc1ncc(-c2cc(C)c3c(n2)C(C)(C)N(c2cnn(CC(F)(F)F)c2)C3=O)cc1C(=O)NC[C@@H](O)CO` the value was more than 7.00.
For `COc1cncc(-c2cc(C)c3c(n2)C(OCCO)N(c2cnn(CC(F)(F)F)c2)C3=O)c1` (centres undefined), the pKi was more than 7.00.
Regarding `COc1cc(-c2ccc3c(c2)CN(c2cccc(C(C)=O)c2)C3=O)cnc1OC`, the pKi is 6.31 to 7.00.
With `COc1cncc(-c2cc(C)c3c(n2)C2(CCC2)N(c2cnn(CC(F)(F)F)c2)C3=O)c1` the figure was more than 7.00; with `COc1ccc(-c2cc(C)c3c(n2)CN(c2cnn(CC#N)c2)C3=O)nc1OC`, more than 7.00.
Regarding `CCOc1ncc(-c2cc(C)c3c(n2)C2(CCCO2)N(c2ccn(CC)n2)C3=O)cc1OC` (centres undefined), the pKi was 6.31 to 7.00.
`COc1cc(-c2ccc3c(n2)CN(c2cnn(Cc4ccn(C)n4)c2)C3=O)cnc1OC` gave a pKi of more than 7.00.
With `CCC1c2nc(-c3cnc(OC)c(OC)c3)ccc2C(=O)N1c1cc(COC)n(CC)n1` (centres undefined), the pKi is 6.31 to 7.00.
For `COc1cc(-c2ccc3c(n2)CN(c2ccc(N(C)CC4CCCO4)nc2)C3=O)cnc1OC` (centres undefined) the value was 6.31 to 7.00; for `CCOc1cncc(-c2cc(C)c3c(n2)C(C)(C)N(c2cn[nH]c2)C3=O)c1`, 6.31 to 7.00; for `COc1cc(-c2ccc3c(n2)CN(c2ccc(N4CCN(CCO)CC4)nc2)C3=O)cnc1OC`, more than 7.00.
With `C=C(F)Cn1cc(N2C(=O)c3ccc(-c4cnc(OC)c(OC)c4)nc3C2(C)C)cn1` the figure was more than 7.00.
Molecule `COc1cc(-c2ccc3c(n2)CN(c2ccc(N4CCC(C#N)CC4)nc2)C3=O)cnc1OC` gave a negative-log Ki (pKi) of more than 7.00.
As for `COc1cc(-c2cc(C)c3c(n2)[C@@](C)(OC)N(c2cnn(CC(F)(F)F)c2)C3=O)cnc1OC`, the pKi is more than 7.00.
With `COc1cc(-c2cc(C)c3c(n2)[C@@H](OC)N(c2cnn(CC(F)(F)F)c2)C3=O)cnc1OC` the figure was more than 7.00; with `CCn1ccc(N2C(=O)c3ccc(-c4cnc(OC)c(OC)c4)nc3[C@H]2C)n1`, more than 7.00; with `COc1ncc(-c2cc(C)c3c(n2)C(C)(C)N(c2cnn(CC(F)(F)F)c2)C3=O)cc1C(=O)NC1COC1`, more than 7.00.
With `COCn1cc(N2Cc3cc(-c4cnc(OC)c(OC)c4)ccc3C2=O)cn1` the figure was more than 7.00; with `CCOc1ncc(-c2cc(C)c3c(c2)C(C)N(c2cnn(CC(F)(F)F)c2)C3=O)cc1OC` (centres undefined), more than 7.00; with `COCCOCCOc1ncc(-c2cc(C)c3c(n2)CN(c2cnn(CC#N)c2)C3=O)cc1OC`, more than 7.00.
For `COc1cc(-c2ccc3c(c2)CN(c2cncc(C)c2)C3=O)cnc1OC` the value was more than 7.00.
The molecule `COc1cc(-c2cc(C)c3c(n2)[C@@]2(CCCO2)N(c2cnn(CC(F)(F)F)c2)C3=O)cnc1OC` had a pKi of more than 7.00.
With `Cc1cc(-c2cncc(OC(F)F)c2)nc2c1C(=O)N(c1cncc(CC#N)c1)C2C` (centres undefined) the figure was more than 7.00; with `COc1cc(-c2cc(C)c3c(n2)[C@]2(CCCO2)N(c2cnn(CC(F)(F)F)c2)C3=O)cnc1OC`, more than 7.00; with `COc1cc(-c2ccc3c(n2)CN(c2ccn(CC(F)(F)F)n2)C3=O)cnc1OC`, more than 7.00.
With `COc1cc(-c2ccc3c(n2)CN(c2cncc(CN4CCOCC4)c2)C3=O)cnc1OC` the figure was 6.31 to 7.00.
For `COc1cc(-c2cc(C)c3c(n2)[C@H](OC)N(c2cnn(CC(F)(F)F)c2)C3=O)cnc1OC` the value was more than 7.00.
The molecule `COc1cncc(-c2cc(C)c3c(n2)CN(c2cc[nH]n2)C3=O)c1` gave a pKi of more than 7.00.
For `COc1cc(-c2ccc3c(n2)CN(c2ccc(N4CCCC(CO)C4)nc2)C3=O)cnc1OC` (centres undefined) the value was more than 7.00.
For `Cc1cc(-c2cncc(C(=O)NC(C)C)c2)nc2c1C(=O)N(c1cnn(CC(F)(F)F)c1)C2C` (centres undefined), the pKi was more than 7.00.
In turn, `CCn1cc(N2Cc3nc(-c4cnc(OC)c(OCC5CC5)c4)cc(C)c3C2=O)cn1` showed a pKi of more than 7.00.
For `CCOc1cncc(-c2cc(C)c3c(n2)C(C)(C)N(c2cnn(CC(F)F)c2)C3=O)c1` the value was more than 7.00; for `COc1cc(-c2ccc3c(n2)CN(c2ccc(N4CCC(O)CC4)nc2)C3=O)cnc1OC`, more than 7.00; for `COc1cc(-c2cc(C)c3c(n2)C(C)(C)N(c2cnn(CC(F)(F)F)c2)C3=O)cnc1OC(C)C`, more than 7.00.
For `COc1cncc(-c2cc(C)c3c(n2)C2(CCOC2)N(c2cnn(CC(F)(F)F)c2)C3=O)c1` (centres undefined) the value was more than 7.00.
For `Cc1cc(-c2cc(OC(F)(F)F)ccc2Cl)nc2c1C(=O)N(c1cnn(CC(F)(F)F)c1)C2` the value was 6.31 to 7.00; for `CCOc1cc(-c2cc(C)c3c(n2)C(OCCOC)N(c2cnn(CC(F)(F)F)c2)C3=O)cnc1OC` (centres undefined), more than 7.00; for `CO[C@H]1c2nc(-c3cncc(OCC(F)F)c3)cc(C)c2C(=O)N1c1cnn(CC(F)(F)F)c1`, more than 7.00.
On to `COc1cc(-c2ccc3c(n2)C(N2CC(OC)C2)N(c2cnn(CC(F)(F)F)c2)C3=O)cnc1OC` (centres undefined), for which the pKi is 6.31 to 7.00.
For `Cc1cc(-c2cncc(OC(F)F)c2)nc2c1C(=O)N(c1cn[nH]c1)C2C` (centres undefined) the value was more than 7.00.
With `COc1cc(-c2cc(C)c3c(n2)CN(c2ccnc(F)c2)C3=O)cnc1OC` the figure was more than 7.00; with `COc1cncc(-c2cc(C)c3c(n2)C2(CC=CC2)N(c2cnn(CC(F)(F)F)c2)C3=O)c1`, more than 7.00; with `CCn1cc(N2Cc3nc(-c4cnc(OC)c(OC)c4)ccc3C2=O)nn1`, more than 7.00.
For `COc1cc(-c2cc(Cl)c3c(n2)CN(c2cnn(CC#N)c2)C3=O)cnc1OC` the value was more than 7.00; for `Cc1cc(-c2cncc(OC(F)F)c2)nc2c1C(=O)N(c1cnn(C[C@H](C)O)c1)C2C` (some centres undefined), more than 7.00; for `Cc1cc(-c2cncc(OC(F)F)c2)nc2c1C(=O)N(c1cnn(C(C)(C)C#N)c1)C2C` (centres undefined), more than 7.00.
As to `CCn1ccc(N2Cc3nc(-c4cnc(OC)c(OCC(F)F)c4)cc(C)c3C2=O)n1`, the negative-log Ki (pKi) was more than 7.00.
With `COc1ncc(-c2cc(C)c3c(n2)CN(c2ccn(C4COC4)n2)C3=O)cc1OCC(F)(F)F` the figure was more than 7.00; with `COc1cncc(-c2cc(C)c3c(n2)C(C)(C)N(c2cnn([C@@H]4CCOC4)c2)C3=O)c1`, more than 7.00.
For `COc1ccc(-c2cc(C)c3c(n2)CN(c2cnn(CC#N)c2)C3=O)cc1OC` the value was more than 7.00.

The values are drawn from the Kinase Knowledgebase extract (Sharma et al. 2016).
